Data taken from article PMC12006171, “Marsupial cathelicidins: characterization, antimicrobial activity and evolution in this unique mammalian lineage” (Frontiers in Immunology, 2025).
Converted amounts (≈) assume the structure as drawn. Where two headings read alike, the source gives them in different places. Where a SMILES comes first, the peptide text is derived from it.

Legend:
[1] = system: three fungi (Candida krusei, Candida parapsilosis, Candida albicans); set-up: method as in 4 sources, ref Peel et al 2016 ||| ref Peel et al 2021 ||| ref Wang et al 2011 ||| ref Peel et al 2017; details: cited from earlier work
[2] = system: six bacteria (S. aureus, E. coli, P. aeruginosa; ATCC and clinical isolate); set-up: method as in 4 sources, ref Peel et al 2016 ||| ref Peel et al 2021 ||| ref Wang et al 2011 ||| ref Peel et al 2017; details: cited from earlier work
[3] = system: Pseudomonas aeruginosa ATCC 27853; assay: microbe, parasite or virus in culture; format: cell-based; details: ATCC 27853; read-out: MIC P. aeruginosa ATCC
Experimental: (§1) Antimicrobial testing of 78 cathelicidin MPs was performed in two phases as outlined in Figure 1 . In phase I, 40 peptides (27 extant and 13 ancestral) were selected for testing based on rank (outlined above) and similarity to published marsupial cathelicidins with known antimicrobial activity ([33], [41]–[43]). These peptides were tested against nine bacteria (Staphylococcus aureus ATCC 29213 and clinical isolate, Escherichia coli ATCC 25922 and clinical isolate, Pseudomonas aeruginosa ATCC 27853 and clinical isolate, Streptococcus agalactiae ATCC 12386 and clinical isolate, Streptococcus pneumoniae ATCC 49619) and three fungi (Candida krusei ATCC 6258, Candida parapsilosis ATCC 22019, and Candida albicans clinical isolate). Details regarding these strains are available in Supplementary Table 4 . The antimicrobial activity of cathelicidins was determined as the minimum inhibitory concentration (MIC), which was the lowest concentration of cathelicidin that prevented visible bacterial or fungal growth, relative to the negative control. […] Minimum bactericidal concentration (MBC) and/or minimum fungicidal concentration (MFC) was conducted to determine microbicidal versus static action. Activity against S. aureus ATCC, E. coli ATCC, and Pseudomonas aeruginosa ATCC 27853 was examined in the presence of divalent cations to determine the impact of inhibitors.
(§2) In phase II, the remaining 38 peptides (37 extant and one ancestral) were tested against six bacteria (S. aureus ATCC and clinical isolate, E. coli ATCC and clinical isolate, and P. aeruginosa ATCC and clinical isolate). […] No further testing on phase II peptides was performed. Detailed methods for all assays are provided in subsequent sections.
(§3) Antimicrobial activity was determined using a broth microdilution susceptibility assay in 96 well polypropylene plates according to Clinical Laboratory Standards Institute guidelines M07-A and M26A as described previously ([33], [42], [43]). The bacterial and fungal isolates from humans and animals used in this study are outlined in Supplementary Table 4 . Only yeasts were included in the panel of fungi as they have been used in the susceptibility testing of eutherian ([3], [81]–[83]) and other marsupial cathelicidins previously ([33], [42], [43]). Cathelicidin mature peptides were solubilized in DMSO and serially diluted in duplicate from 128-0.25μg/mL in a final volume of 100µL. For bacteria, cathelicidins were diluted in Mueller Hinton Broth (MHB) with or without 10% lysed horse blood, and with (MH II B) or without (MHB) calcium and magnesium cations. For fungi, cathelicidins were diluted in Roswell Park Memorial Institute medium (RPMI)-1640 MOPS. Ampicillin or tetracycline were included as a positive control for Gram-positive and -negative bacteria respectively, while amphotericin B was used for fungi. A media-only negative control and growth control (no cathelicidin) were also included on each plate. Bacteria were sub-cultured on Muller Hinton agar (MHA) or sheep blood agar (BA), and fungi on Sabouraud dextrose agar (SAB), 20–24 hours prior to the test. Colonies were suspended in saline, the concentration adjusted to a 0.5 McFarland standard, and then diluted in media to a concentration of 1.0 x 10^6 cells/mL. Then, 100μL was added to each well of the cathelicidin dilution plate, giving a final inoculum density of 5 x 10^5 CFU/mL and cathelicidin concentration of 64-0.125μg/mL. Colony counts were performed on MHA/BA/SAB to confirm inoculum density. All plates were incubated at 35°C for 20–24 hours, depending on the strain.
(§4) Colonies were counted and compared to the colony count of the starting inoculum.

[4] = system: Staphylococcus aureus clinical isolate - animal; assay: microbe, parasite or virus in culture; format: cell-based; details: clinical isolate - animal; read-out: MIC S. aureus
Experimental: as §1, §2, §3, §4

[5] = system: Escherichia coli clinical isolate - animal; assay: microbe, parasite or virus in culture; format: cell-based; details: clinical isolate - animal
Experimental: as §1, §2, §3, §4

[6] = system: Escherichia coli ATCC 25922; assay: microbe, parasite or virus in culture; format: cell-based; details: ATCC 25922
Experimental: as §1, §2, §3, §4

[7] = system: Staphylococcus aureus ATCC 29213; assay: microbe, parasite or virus in culture; format: cell-based; details: ATCC 29213; read-out: MIC S. aureus ATCC
Experimental: as §1, §2, §3, §4

[8] = system: Pseudomonas aeruginosa clinical isolate - animal; assay: microbe, parasite or virus in culture; format: cell-based; details: clinical isolate - animal; read-out: MIC P. aeruginosa
Experimental: as §1, §2, §3, §4

[9] = mature peptide (MP), Y/N summary, ref Peel et al 2017
[10] = mature peptide, Y/N summary from earlier study, ref Peel et al 2017
[11] = mature peptide, Y/N summary from earlier study, ref Peel et al 2021

For “LKKFFSSMIKKAVSKGISKGISKGIQEVDKAIKQKK [ModoCath2]”, the “Antifungal (MIC <64ug/mL)” value [1, 9] is listed as “N (Peel et al 2017) (Antifungal (MIC <64ug/mL))” and the “Antibacterial (MIC <64ug/mL)” value [2, 9] is listed as “N (Peel et al 2017) (Antibacterial (MIC <64ug/mL))”.
In the case of “KRGLWESLKRKVTKLGDDIRNTLRNFKIKFPVPRQG [MaeuCath7]”, the “Antifungal (MIC <64ug/mL)” value [1, 10] is listed as “N (Peel et al 2017) (Antifungal (MIC <64ug/mL))” and the “Antibacterial (MIC <64ug/mL)” value [2, 10] is listed as “Y (Peel et al 2017) (Antibacterial (MIC <64ug/mL))”.
In the case of “PPEPLRFKRIRCLNGRKCNYHNLLLTIVPHWRIPKGK [PhciCath3]”, the “Antifungal (MIC <64ug/mL)” value [1, 11] is listed as “N (Peel et al 2021) (Antifungal (MIC <64ug/mL))” and the “Antibacterial (MIC <64ug/mL)” value [2, 11] is listed as “N (Peel et al 2021) (Antibacterial (MIC <64ug/mL))”.
In the case of “LFPRRRKGSNKPGKYSVLFAAKPSVGKTPHILTI [PhciCath1]”, the “Antifungal (MIC <64ug/mL)” value [1, 11] is given as “N (Peel et al 2021) (Antifungal (MIC <64ug/mL))” and the “Antibacterial (MIC <64ug/mL)” value [2, 11] is given as “N (Peel et al 2021) (Antibacterial (MIC <64ug/mL))”.
For “IKIFIPKGFYKGIQLVNEIIKENNERQKQKP [ModoCath12]”, the “Antifungal (MIC <64ug/mL)” value [1, 9] is listed as “N (Peel et al 2017) (Antifungal (MIC <64ug/mL))” and the “Antibacterial (MIC <64ug/mL)” value [2, 9] is listed as “N (Peel et al 2017) (Antibacterial (MIC <64ug/mL))”.
CC[C@H](C)[C@H](NC(=O)[C@H](CO)NC(=O)[C@H](CCCNC(=N)N)NC(=O)[C@H](CCCNC(=N)N)NC(=O)[C@@H]1CCCN1C(=O)[C@H](CCCNC(=N)N)NC(=O)[C@@H]1CCCN1C(=O)[C@H](Cc1ccccc1)NC(=O)[C@@H]1CCCN1C(=O)[C@H](Cc1ccccc1)NC(=O)CNC(=O)[C@@H]1CCCN1C(=O)[C@H](CCCNC(=N)N)NC(=O)[C@@H]1CCCN1C(=O)[C@H](Cc1ccccc1)NC(=O)[C@@H]1CCCN1C(=O)[C@H](Cc1ccccc1)NC(=O)CNC(=O)[C@@H]1CCCN1C(=O)[C@H](CCCNC(=N)N)NC(=O)[C@@H]1CCCN1C(=O)[C@H](Cc1ccccc1)NC(=O)[C@H](CO)NC(=O)[C@@H]1CCCN1C(=O)[C@H](CCCNC(=N)N)NC(=O)[C@@H]1CCCN1C(=O)[C@H](CCCNC(=N)N)NC(=O)[C@@H]1CCCN1C(=O)[C@H](CCCNC(=N)N)NC(=O)[C@@H]1CCCN1C(=O)[C@H](CC(C)C)NC(=O)[C@H](Cc1ccc(O)cc1)NC(=O)[C@@H]1CCCN1C(=O)[C@H](CCCNC(=N)N)NC(=O)[C@H](CCCNC(=N)N)NC(=O)[C@H](CCC(=O)O)NC(=O)[C@H](CCCNC(=N)N)NC(=O)[C@@H](N)CCCNC(=N)N)C(=O)O [MyfaCath3] (H-RRERRPYLPRPRPRPSFPRPGFPFPRPGFPFPRPRRSI-OH) showed an MIC [3] greater than 13.6 µM, an MIC [4] greater than 13.6 µM and an MBC E. coli [5] of 3.4 µM (≈ 16 µg/mL). The MIC E. coli [5] was 3.4 µM (≈ 16 µg/mL), the MBC E. coli ATCC [6] was 1.7 µM (≈ 7.99 µg/mL) and the MIC E. coli ATCC [6] was 1.7 µM (≈ 7.99 µg/mL). It also gave an MIC [7] greater than 13.6 µM and an MIC [8] greater than 13.6 µM.
In the case of CC[C@H](C)[C@H](NC(=O)[C@H](CCCNC(=N)N)NC(=O)[C@H](CCCNC(=N)N)NC(=O)[C@H](C)N)C(=O)N[C@@H](CCCNC(=N)N)C(=O)N[C@@H](CCCNC(=N)N)C(=O)N1CCC[C@H]1C(=O)N[C@@H](Cc1ccc(O)cc1)C(=O)N[C@@H](CC(C)C)C(=O)N1CCC[C@H]1C(=O)N[C@@H](CCCNC(=N)N)C(=O)N1CCC[C@H]1C(=O)N[C@@H](CCCNC(=N)N)C(=O)N1CCC[C@H]1C(=O)N[C@@H](CCCNC(=N)N)C(=O)N1CCC[C@H]1C(=O)N[C@@H](CC(N)=O)C(=O)N[C@@H](Cc1ccccc1)C(=O)N1CCC[C@H]1C(=O)N1CCC[C@H]1C(=O)N1CCC[C@H]1C(=O)N[C@@H](CCCNC(=N)N)C(=O)N1CCC[C@H]1C(=O)N[C@@H](CCCNC(=N)N)C(=O)N1CCC[C@H]1C(=O)NCC(=O)N[C@@H](CCCNC(=N)N)C(=O)N[C@@H](CO)C(=O)N[C@H](C(=O)O)C(C)C [AnstCath2] (H-ARRIRRPYLPRPRPRPNFPPPRPRPGRSV-OH), the MIC [3] is reported as greater than 18.2 µM, the MIC [4] is reported as greater than 18.2 µM and the “MBC E. coli” value [5] is reported as 18.2 µM (≈ 64 µg/mL). It also gave an MIC [5] of 9.1 µM (≈ 32 µg/mL), an MBC E. coli ATCC [6] of 4.5 µM (≈ 15.8 µg/mL) and an MIC E. coli ATCC [6] of 4.5 µM (≈ 15.8 µg/mL). The MIC [7] was greater than 18.2 µM and the MIC [8] was greater than 18.2 µM.
For CC[C@H](C)[C@H](NC(=O)[C@H](C)NC(=O)[C@H](CC(N)=O)NC(=O)[C@H](CCCCN)NC(=O)[C@@H](NC(=O)[C@@H](NC(=O)[C@H](CC(N)=O)NC(=O)[C@H](CCCCN)NC(=O)[C@@H](NC(=O)[C@H](CCCCN)NC(=O)[C@H](CC(=O)O)NC(=O)CNC(=O)[C@H](C)NC(=O)[C@H](CCCNC(=N)N)NC(=O)[C@H](CCCCN)NC(=O)[C@H](CC(C)C)NC(=O)[C@H](Cc1ccccc1)NC(=O)[C@H](CC(N)=O)NC(=O)[C@H](CCCCN)NC(=O)[C@H](Cc1ccccc1)NC(=O)[C@H](CCCCN)NC(=O)[C@H](CCC(=O)O)NC(=O)[C@H](Cc1ccccc1)NC(=O)[C@@H](NC(=O)[C@H](CCCNC(=N)N)NC(=O)[C@H](CC(C)C)NC(=O)[C@H](CCCCN)NC(=O)[C@H](CCCCN)NC(=O)[C@@H](NC(=O)[C@H](CC(N)=O)NC(=O)[C@H](CCC(=O)O)NC(=O)[C@@H]1CCCN1C(=O)[C@@H](N)CCCNC(=N)N)[C@@H](C)CC)C(C)C)[C@@H](C)CC)[C@@H](C)O)[C@@H](C)CC)C(=O)N[C@@H](CC(N)=O)C(=O)N[C@@H](CC(N)=O)C(=O)N[C@@H](CC(C)C)C(=O)N[C@@H](Cc1ccccc1)C(=O)N[C@@H](CO)C(=O)O [PeguCath3] (H-RPENIKKLRVFEKFKNFLKRAGDKIKNTIKNAINNLFS-OH), the MIC [3] was greater than 14.1 µM, the MIC [4] was greater than 14.1 µM and the MIC [5] was greater than 14.1 µM. For the same compound, the MIC ([6]; read-out: MIC E. coli ATCC) was 14.1 µM (≈ 63.9 µg/mL), the MIC [7] was greater than 14.1 µM and the MIC [8] was greater than 14.1 µM.
